Laboratory results reported in PMC10088252.

O=C(Nc1ccc(Oc2ccnc3c2CCN3)c(F)c1)c1c[nH]cc(-c2ccc(F)cc2)c1=O
TRAE Hyperhidrosis, grade 3-4 (450 mg QD (n=12)): 0 n (%) | TRAE Hyperlipidaemia, any grade (450 mg QD (n=12)): 0 n (%) | TRAE Hyperlipidaemia, grade 3-4 (450 mg QD (n=12)): 0 n (%) | TRAE Hypertension, any grade (450 mg QD (n=12)): 0 n (%) | TRAE Hypertension, grade 3-4 (450 mg QD (n=12)): 0 n (%) | TRAE Hypoaesthesia oral, any grade (450 mg QD (n=12)): 2 (16.7) n (%) | TRAE Hypoaesthesia oral, grade 3-4 (450 mg QD (n=12)): 0 n (%) | TRAE Hypocalcaemia, any grade (450 mg QD (n=12)): 0 n (%) | TRAE Hypocalcaemia, grade 3-4 (450 mg QD (n=12)): 0 n (%) | TRAE Hypotension, any grade (450 mg QD (n=12)): 0 n (%) | TRAE Hypotension, grade 3-4 (450 mg QD (n=12)): 0 n (%) | TRAE Insomnia, any grade (450 mg QD (n=12)): 0 n (%) | TRAE Insomnia, grade 3-4 (450 mg QD (n=12)): 0 n (%) | TRAE Leukopenia, any grade (450 mg QD (n=12)): 1 (8.3) n (%) | TRAE Leukopenia, grade 3-4 (450 mg QD (n=12)): 0 n (%) | TRAE Nausea, any grade (450 mg QD (n=12)): 0 n (%) | TRAE Nausea, grade 3-4 (450 mg QD (n=12)): 0 n (%) | TRAE Neuritis, any grade (450 mg QD (n=12)): 0 n (%) | TRAE Neuritis, grade 3-4 (450 mg QD (n=12)): 0 n (%) | TRAE Occult blood, any grade (450 mg QD (n=12)): 1 (8.3) n (%) | TRAE Occult blood, grade 3-4 (450 mg QD (n=12)): 0 n (%) | TRAE Oedema peripheral, any grade (450 mg QD (n=12)): 1 (8.3) n (%) | TRAE Oedema peripheral, grade 3-4 (450 mg QD (n=12)): 0 n (%) | TRAE Onycholysis, any grade (450 mg QD (n=12)): 1 (8.3) n (%) | TRAE Onycholysis, grade 3-4 (450 mg QD (n=12)): 0 n (%) | TRAE Oropharyngeal pain, any grade (450 mg QD (n=12)): 0 n (%) | TRAE Oropharyngeal pain, grade 3-4 (450 mg QD (n=12)): 0 n (%) | TRAE PPE, any grade (450 mg QD (n=12)): 3 (25.0) n (%) | TRAE PPE, grade 3-4 (450 mg QD (n=12)): 1 (8.3) n (%) | TRAE Paraesthesia, any grade (450 mg QD (n=12)): 1 (8.3) n (%) | TRAE Paraesthesia, grade 3-4 (450 mg QD (n=12)): 0 n (%) | TRAE Proteinuria, any grade (450 mg QD (n=12)): 3 (25.0) n (%) | TRAE Proteinuria, grade 3-4 (450 mg QD (n=12)): 1 (8.3) n (%) | TRAE Pruritus, any grade (450 mg QD (n=12)): 1 (8.3) n (%) | TRAE Pruritus, grade 3-4 (450 mg QD (n=12)): 0 n (%) | TRAE Rash maculo-papular, any grade (450 mg QD (n=12)): 0 n (%) | TRAE Rash maculo-papular, grade 3-4 (450 mg QD (n=12)): 0 n (%) | TRAE Sinus tachycardia, any grade (450 mg QD (n=12)): 0 n (%) | TRAE Sinus tachycardia, grade 3-4 (450 mg QD (n=12)): 0 n (%) | TRAE Skin fissures, any grade (450 mg QD (n=12)): 0 n (%) | TRAE Skin fissures, grade 3-4 (450 mg QD (n=12)): 0 n (%) | TRAE Supraventricular extrasystoles, any grade (450 mg QD (n=12)): 0 n (%) | TRAE Supraventricular extrasystoles, grade 3-4 (450 mg QD (n=12)): 0 n (%) | TRAE Thrombocytopenia, any grade (450 mg QD (n=12)): 0 n (%) | TRAE Thrombocytopenia, grade 3-4 (450 mg QD (n=12)): 0 n (%) | TRAE Upper respiratory tract infection, any grade (450 mg QD (n=12)): 0 n (%) | TRAE Upper respiratory tract infection, grade 3-4 (450 mg QD (n=12)): 0 n (%) | TRAE Urinary retention, any grade (450 mg QD (n=12)): 0 n (%) | TRAE Urinary retention, grade 3-4 (450 mg QD (n=12)): 0 n (%) | TRAE Urinary tract infection, any grade (450 mg QD (n=12)): 1 (8.3) n (%) | TRAE Urinary tract infection, grade 3-4 (450 mg QD (n=12)): 0 n (%) | TRAE Ventricular arrhythmia, any grade (450 mg QD (n=12)): 1 (8.3) n (%) | TRAE Ventricular arrhythmia, grade 3-4 (450 mg QD (n=12)): 0 n (%) | TRAE Ventricular extrasystoles, any grade (450 mg QD (n=12)): 0 n (%) | TRAE Ventricular extrasystoles, grade 3-4 (450 mg QD (n=12)): 0 n (%) | TRAE Vomiting, any grade (450 mg QD (n=12)): 1 (8.3) n (%) | TRAE Vomiting, grade 3-4 (450 mg QD (n=12)): 0 n (%) | TRAE Weight loss, any grade (450 mg QD (n=12)): 0 n (%) | TRAE Weight loss, grade 3-4 (450 mg QD (n=12)): 0 n (%) | patients with TEAE of pulmonary infection leading to death, deemed unrelated (450 mg QD cohort): One | TRAE Accessory nerve disorder, any grade (600 mg QD (n=10)): 0 n (%) | TRAE Accessory nerve disorder, grade 3-4 (600 mg QD (n=10)): 0 n (%) | TRAE Activated partial thromboplastin time prolonged, any grade (600 mg QD (n=10)): 0 n (%) | TRAE Activated partial thromboplastin time prolonged, grade 3-4 (600 mg QD (n=10)): 0 n (%) | TRAE Anaemia, any grade (600 mg QD (n=10)): 1 (10.0) n (%) | TRAE Anaemia, grade 3-4 (600 mg QD (n=10)): 0 n (%) | TRAE Anaesthesia oral, any grade (600 mg QD (n=10)): 1 (10.0) n (%) | TRAE Anaesthesia oral, grade 3-4 (600 mg QD (n=10)): 0 n (%) | TRAE Arrhythmia, any grade (600 mg QD (n=10)): 1 (10.0) n (%) | TRAE Arrhythmia, grade 3-4 (600 mg QD (n=10)): 0 n (%) | TRAE Arthralgia, any grade (600 mg QD (n=10)): 0 n (%) | TRAE Arthralgia, grade 3-4 (600 mg QD (n=10)): 0 n (%) | TRAE Asthenia, any grade (600 mg QD (n=10)): 3 (30.0) n (%) | TRAE Asthenia, grade 3-4 (600 mg QD (n=10)): 1 (10.0) n (%) | TRAE Blister, any grade (600 mg QD (n=10)): 0 n (%) | TRAE Blister, grade 3-4 (600 mg QD (n=10)): 0 n (%) | TRAE Chest discomfort, any grade (600 mg QD (n=10)): 0 n (%) | TRAE Chest discomfort, grade 3-4 (600 mg QD (n=10)): 0 n (%) | TRAE Chronic kidney disease, any grade (600 mg QD (n=10)): 0 n (%) | TRAE Chronic kidney disease, grade 3-4 (600 mg QD (n=10)): 0 n (%) | TRAE Constipation, any grade (600 mg QD (n=10)): 1 (10.0) n (%) | TRAE Constipation, grade 3-4 (600 mg QD (n=10)): 0 n (%) | TRAE Cough, any grade (600 mg QD (n=10)): 1 (10.0) n (%) | TRAE Cough, grade 3-4 (600 mg QD (n=10)): 0 n (%)
